System: HCV 1b-377-neo replicon cells
Experiment: HCV replicon assay (HCV 1b-377-neo replicon cells)
Assay type: cell-based, Hepatitis C virus genotype 1b
Conditions: Hepatitis C virus, read-out: EC50 range against HCV 1b (Range)
Procedure: An HCV Replion assay was utilized in the present disclosure, and was prepared, conducted and validated as described in commonly owned PCT/US2006/022197 and in O'Boyle et. al. Antimicrob Agents Chemother. April 2005;49(4): 1346-53.
HCV 1b-377-neo replicon cells were used to test the currently described compound series as well as cells resistant to compound A due to a Y2065H mutation in NS5A (described in application PCT/US2006/022197). The compounds tested were determined to have more than 10-fold less inhibitory activity on cells resistant to compound A than wild-type cells indicating a related mechanism of action between the two compound series. Thus, the compounds of the present disclosure can be effective to inhibit the function of the HCV NS5A protein and are understood to be as effective in combinations as previously described in application PCT/US2006/022197 and commonly owned WO/04014852. Further, the compounds of the present disclosure can be effective against the HCV 1b genotype. It should also be understood that the compounds of the present disclosure can inhibit multiple genotypes of HCV. […] In one embodiment compounds of the present disclosure are active against the 1a, 1b, 2a, 2b, 3a, 4a, and 5a genotypes.

Structure (SMILES)	EC50 [nM]
CN(C)[C@@H](C(=O)N1CCC[C@H]1c1ncc(-c2ccc(-c3ccc(-c4cnc([C@@H]5CCCN5C(=O)[C@@H](c5ccccc5)N(C)C)[nH]4)cc3)cc2)[nH]1)c1ccccc1 [Example 1, (1R,1′R)-2,2′-(4,4′-biphenyldiylbis(1H-imidazole-5,2-diyl(2S)-2,1-pyrrolidinediyl))bis(N,N-dimethyl-2-oxo-1-phenylethanamine)]	0.01 to 0.999
COC(=O)N[C@@H](C(=O)N(C)[C@@H](C)c1ncc(-c2ccc(-c3ccc(-c4cnc([C@H](C)N(C)C(=O)[C@H](NC(=O)OC)c5ccccc5)[nH]4)cc3)cc2)[nH]1)c1ccccc1 [Example 24-18-1, dimethyl (4,4′-biphenyl-diylbis(1H-imidazole-5,2-diyl(1S)-1,1-ethane-diyl(methyli-mino)(1R)-2-oxo-1-phenyl-2,1-ethane-diyl)))biscar-bamate]	0.01 to 0.999
C[C@@H](c1ncc(-c2ccc(-c3ccc(-c4cnc([C@H](C)N(C)C(=O)[C@@H](c5ccccc5)N(C)C)[nH]4)cc3)cc2)[nH]1)N(C)C(=O)[C@@H](c1ccccc1)N(C)C [Example 24-18-2, (2R,2′R)-N,N′-(4,4′-biphenyl-diylbis(1H-imidazole-5,2-diyl(1S)-1,1-ethane-diyl))bis(2-(dimethyl-amino)-N-methyl-2-phenyl-acetamide)]	0.01 to 0.999
C[C@@H](c1ncc(-c2ccc(-c3ccc(-c4cnc([C@H](C)N(C)C(=O)[C@@H](c5ccccc5)N5CCCCC5)[nH]4)cc3)cc2)[nH]1)N(C)C(=O)[C@@H](c1ccccc1)N1CCCCC1 [Example 24-18-3, (2R,2′R)-N,N′-(4,4′-biphenyl-diylbis(1H-imidazole-5,2-diyl(1S)-1,1-ethane-diyl))bis(N-meth-yl-2-phenyl-2-(1-piperi-dinyl)acet-amide)]	0.01 to 0.999
COC(=O)N[C@@H](C(=O)N(C)[C@@H](C)c1ncc(-c2ccc(-c3ccc(-c4cnc([C@@H]5CCCN5C(=O)[C@H](NC(=O)OC)c5ccccc5)[nH]4)cc3)cc2)[nH]1)c1ccccc1 [Example 24-18-4, methyl ((1R)-2-((2S)-2-(5-(4′-(2-((1S)-1-(((2R)-2-((methoxy-carbonyl)a-mino)-2-phenyl-acetyl)(meth-yl)ami-no)ethyl)-1H-imidazol-5-yl)-4-bi-phenylyl)-1H-imidazol-2-yl)-1-pyrrolidi-nyl)-2-oxo-1-phenyl-ethyl)carba-mate]	0.01 to 0.999
C[C@@H](c1ncc(-c2ccc(-c3ccc(-c4cnc([C@@H]5CCCN5C(=O)[C@@H](c5ccccc5)N(C)C)[nH]4)cc3)cc2)[nH]1)N(C)C(=O)[C@@H](c1ccccc1)N(C)C [Example 24-18-5, (2R)-2-(dimethyl-amino)-N-((1S)-1-(5-(4′-(2-((2S)-1-((2R)-2-(dimethyl-amino)-2-phenyl-acetyl)-2-pyrroli-dinyl)-1H-imida-zol-5-yl)-4-biphenyl-yl)-1H-imidazol-2-yl)ethyl)-N-methyl-2-phenyl-acetamide]	0.01 to 0.999
COC(=O)N[C@@H](C(=O)N1CCC[C@H]1c1ncc(-c2ccc(-c3ccc(-c4cnc([C@@H]5CCCN5C(=O)Cc5ccccc5)[nH]4)cc3)cc2)[nH]1)c1ccccc1 [Example 28, methyl((1R)-2-oxo-1-phenyl-2-((2S)-2-(5-(4′-(2-((2S)-1-(phenylacetyl)-2-pyrrolidinyl)-1H-imidazol-5-yl)-4-biphenylyl)-1H-imidazol-2-yl)-1-pyrrolidinyl)ethyl)carbamate]	1 to 99
Cc1cc(-c2cnc([C@@H]3CCCN3C(=O)[C@@H](c3ccccc3)N(C)C)[nH]2)ccc1-c1ccc(-c2cnc([C@@H]3CCCN3C(=O)[C@@H](c3ccccc3)N(C)C)[nH]2)cc1C [Example 121, (1R,1′R)-2,2′-((2,2′-dimethyl-4,4′-biphenyldiyl)bis(1H-imidazole-5,2-diyl(2S)-2,1-pyrrolidinediyl))bis(N,N-dimethyl-2-oxo-1-phenylethanamine)]	0.01 to 0.999
COC(=O)N[C@@H](C(=O)N1CCC[C@H]1c1ncc(-c2ccc(-c3ccc(-c4cnc([C@@H]5CCCN5C(=O)Cc5cccnc5)[nH]4)cc3C)cc2)[nH]1)c1ccccc1 [Example 127, methyl ((1R)-2-((2S)-2-(5-(2′-methyl-4′-(2-((2S)-1-(3-pyridinylacetyl)-2-pyrrolidinyl)-1H-imidazol-5-yl)-4-biphenylyl)-1H-imidazol-2-yl)-1-pyrrolidinyl)-2-oxo-1-phenylethyl)carbamate]	0.01 to 0.999
COC(=O)N[C@@H](C(=O)N1CCC[C@H]1c1ncc(-c2ccc(-c3ccc(-c4cnc([C@@H]5CCCN5C(=O)[C@@H]5CCCO5)[nH]4)cc3C)cc2)[nH]1)c1ccccc1 [Example 128, methyl ((1R)-2-((2S)-2-(5-(2′-methyl-4′-(2-((2S)-1-((2S)-tetrahydro-2-furanylcarbonyl)-2-pyrrolidinyl)-1H-imidazol-5-yl)-4-biphenylyl)-1H-imidazol-2-yl)-1-pyrrolidinyl)-2-oxo-1-phenylethyl)carbamate]	0.01 to 0.999
CN(C)[C@@H](C(=O)N1CCC[C@H]1c1ncc(-c2ccc(-c3ccc(-c4cnc([C@@H]5CCCN5C(=O)[C@@H](c5ccccc5)N(C)C)[nH]4)cc3C(F)(F)F)cc2)[nH]1)c1ccccc1 [Example 130, (1R,1′R)-2,2′-((2-(trifluoromethyl)-4,4′-biphenyldiyl)bis(1H-imidazole-5,2-diyl(2S)-2,1-pyrrolidinediyl))bis(N,N-dimethyl-2-oxo-1-phenylethanamine)]	0.01 to 0.999
COC(=O)N[C@@H](C(=O)N(C)[C@@H](C)c1ncc(-c2ccc(-c3ccc(-c4cnc([C@@H]5CCCN5C(=O)[C@@H](c5ccccc5)N(C)C)[nH]4)cc3)cc2)[nH]1)c1ccccc1 [Example 131.1-1, methyl((1R)-2-(((1S)-1-(5-(4′-(2-((2S)-1-((2R)-2-(dimethylamino)-2-phenylacetyl)-2-pyrrolidinyl)-1H-imidazol-5-yl)-4-biphenylyl)-1H-imidazol-2-yl)ethyl)(methyl)amino)-2-oxo-1-phenylethyl)carbamate]	0.01 to 0.999
COC(=O)N[C@@H](C(=O)N(C)[C@@H](C)c1ncc(-c2ccc(-c3ccc(-c4cnc([C@@H]5CCCN5C(=O)[C@@H](c5ccccc5)N5CCCCC5)[nH]4)cc3)cc2)[nH]1)c1ccccc1 [Example 131.1-2, methyl((1R)-2-(methyl((1S)-1-(5-(4′-(2-((2S)-1-((2R)-2-phenyl-2-(1-piperidinyl)acetyl)-2-pyrrolidinyl)-1H-imidazol-5-yl)-4-biphenylyl)-1H-imidazol-2-yl)ethyl)amino)-2-oxo-1-phenylethyl)carbamate]	0.01 to 0.999
CN(C)[C@@H](C(=O)N1CCC[C@H]1c1ncc(-c2ccc(-c3ccc(-c4cnc([C@@H]5CCCN5C(=O)[C@@H](c5ccccc5)N(C)C)[nH]4)cn3)cc2)[nH]1)c1ccccc1 [Example 132, (1R)-2-((2S)-2-(5-(6-(4-(2-((2S)-1-((2R)-2-(dimethylamino)-2-phenylacetyl)-2-pyrrolidinyl)-1H-imidazol-5-yl)phenyl)-3-pyridinyl)-1H-imidazol-2-yl)-1-pyrrolidinyl)-N,N-dimethyl-2-oxo-1-phenylethanamine]	0.01 to 0.999
O=C([C@H](O)c1ccccc1)N1CCC[C@H]1c1ncc(-c2ccc(-c3ccc(-c4cnc([C@@H]5CCCN5C(=O)[C@H](O)c5ccccc5)[nH]4)cn3)cc2)[nH]1 [Example 133, (1R)-2-((2S)-2-(5-(6-(4-(2-((2S)-1-((2R)-2-hydroxy-2-phenylacetyl)-2-pyrrolidinyl)-1H-imidazol-5-yl)phenyl)-3-pyridinyl)-1H-imidazol-2-yl)-1-pyrrolidinyl)-2-oxo-1-phenylethanol]	1 to 99
COC(=O)N[C@@H](C(=O)N1CCC[C@H]1c1ncc(-c2ccc(-c3ccc(-c4cnc([C@@H]5CCCN5C(=O)[C@H](NC(=O)OC)c5ccccc5)[nH]4)cn3)cc2)[nH]1)c1ccccc1 [Example 134, methyl ((1R)-2-((2S)-2-(5-(6-(4-(2-((2S)-1-((2R)-2-((methoxycarbonyl)amino)-2-phenylacetyl)-2-pyrrolidinyl)-1H-imidazol-5-yl)phenyl)-3-pyridinyl)-1H-imidazol-2-yl)-1-pyrrolidinyl)-2-oxo-1-phenylethyl)carbamate]	0.01 to 0.999

Same assay, conditions: listed as 151 isomer 1, read-out: EC50 range against HCV 1b (Range)

Structure (SMILES)	EC50 [nM]
CN(C)[C@@H](C(=O)N1CCC[C@H]1c1nc(-c2ccc(-c3ccc(-c4cn(C)c([C@@H]5CCCN5C(=O)[C@@H](c5ccccc5)N(C)C)n4)cc3)cc2)cn1C)c1ccccc1 (single isomer, unassigned) [Example 151 isomer 1]	1 to 99

Same assay, conditions: listed as 151 isomer 2, read-out: EC50 range against HCV 1b (Range)

Structure (SMILES)	EC50 [nM]
CN(C)[C@@H](C(=O)N1CCC[C@H]1c1nc(-c2ccc(-c3ccc(-c4cn(C)c([C@@H]5CCCN5C(=O)[C@@H](c5ccccc5)N(C)C)n4)cc3)cc2)cn1C)c1ccccc1 (single isomer, unassigned) [Example 151 isomer 2]	100 to 999

Same assay, conditions: read-out: EC50 range against HCV 1b (Range)

Structure (SMILES)	EC50 [nM]
COC(=O)N[C@@H](C(=O)N1CCC[C@H]1c1ncc(-c2ccc(-c3ccc(-c4cnc([C@@H]5CCCN5C(=O)[C@@H](c5ccccc5)N(C)C)[nH]4)cc3C)cc2)[nH]1)c1ccccc1 [Example 126, methyl ((1R)-2-((2S)-2-(5-(4′-(2-((2S)-1-((2R)-2-(dimethylamino)-2-phenylacetyl)-2-pyrolidinyl)-1H-imidazol-5-yl)-2′-methyl-4-biphenylyl)-1H-imidazol-2-yl)-1-pyrrolidinyl)-2-oxo-1-phenylethyl)carbamate]	0.01 to 0.999

— patent US7659270B2, “Hepatitis C virus inhibitors” (Bristol-Myers Squibb Company, priority 2006, dated 2010)
